Data on 26 compounds can be found in the RepoRT retention time repository (doi:10.1016/j.aca.2011.12.065).

One data set in a line: RP, Waters ACQUITY UPLC BEH C18, 100 × 2.1 mm, 1.7 µm; A: water + 0.1% formic acid, pH 3; B: 80% acetonitrile + 20% acetone + 0.1% formic acid, pH 3; gradient (min/%B) 0/0 6/100. The settings on record: stereoisomer not certain.
In the case of `CC(C)(O)CC(=O)O` [3-hydroxy-3-methyl butanoic acid], the LC retention time was 1.44 min.
On the same count and under the same terms, the value for `Cn1c(=N)ccn(C2OC(CO)C(O)C2O)c1=O` (configuration not stated) [3-methylcytidine methosulfate] was 0.986 min.
Same read-out and setting: to `Cn1c(=O)[nH]c(=O)c2[nH]cnc21` [3-methylxanthine] belongs 1.28 min; to `CC(=O)Nc1ccc(C(=O)O)cc1` [4-acetamidobenzoic acid], 1.71 min.
Same read-out and setting: the value for `O=Cc1ccc(O)cc1` [4-hydroxybenzaldehyde] was 1.91 min.
On to `Cc1cn(C2OC(CO)C(O)C2O)c(=O)nc1N` (configuration not stated) [5-methylcytidine], for which the LC retention time came to 1.28 min.
`COc1cc2c(CCNC(C)=O)c[nH]c2cc1O` [6-hydroxymelatonin]: the LC retention time worked out at 1.81 min.
The same measure, in the same setting: to `Cn1c[n+](C2OC(CO)C(O)C2O)c2nc(N)[nH]c(=O)c21` (configuration not stated) [7-methylguanosine] belongs 1.17 min; to `O=C(O)C(O)Cc1ccc(O)cc1` (stereo not drawn) [(DL)-p-hydroxyphenyllactic acid], 1.54 min; to `Nc1ncnc2nc[nH]c12` [Adenine], 0.685 min.
On the same count and under the same terms, to `Nc1ncnc2c1ncn2C1OC(CO)C(O)C1O` (configuration not stated) [Adenosine] belongs 1.34 min; to `O=C(O)CCCCC(=O)O` [Adipic acid], 1.5 min.
Still for that read-out and setting: the value for `O=C(O)CCCCCCCC(=O)O` [Azelaic acid] was 2.26 min; that for `CC(NCCCCC(N)C(=O)O)C(=O)O` (configuration not stated) [CEL] was 0.571 min.
Consider `Cn1c(=O)c2c(ncn2C)n(C)c1=O` [Caffeine], for which the LC retention time stood at 1.65 min.
In the case of `CC(CCC(=O)O)C1CCC2C3C(O)CC4CC(O)CCC4(C)C3CC(O)C12C` (configuration not stated) [Cholic acid], the LC retention time came out at 3.4 min.
Same read-out and setting: to `O=C(O)CC(O)(CC(=O)O)C(=O)O` [Citric acid] belongs 0.785 min.
Consider `NC(=O)NCCCC(N)C(=O)O` (configuration not stated) [Citrulline], for which the LC retention time came out at 0.575 min.
Take `CC12CCC(=O)C=C1CCC1C2C(=O)CC2(C)C1CCC2(O)C(=O)CO` (configuration not stated) [Cortisone]: the LC retention time turned out to be 2.61 min.
On the same count and under the same terms, to `CN1CC(=O)NC1=N` [Creatinine] belongs 0.572 min; to `CC(O)C1NC(=O)C2CCCN2C1=O` (configuration not stated) [Cyclic(pro-thr)], 1.37 min.
Same read-out and setting: the value for `CC(CCC(=O)O)C1CCC2C3CCC4CC(O)CCC4(C)C3CC(O)C12C` (configuration not stated) [Deoxycholic acid] was 3.94 min; that for `NC(CCCCNC(=O)CO)C(=O)O` (configuration not stated) [GALA ((2s)-2-amino-6-(2-hydroxy-acetylamino)-hexanoic acid)] was 0.676 min; that for `O=C(O)CCCC(=O)O` [Glutaric acid] was 1.37 min.
The same measure, in the same setting: to `O=C(O)CNC(=O)c1ccccc1` [Hippuric acid] belongs 1.77 min; to `CC(C(=O)O)C(=O)O` [Methylmalonic acid], 1.27 min.

Another data set is described as follows: RP, Waters ACQUITY UPLC HSS T3, 100 × 2.1 mm, 1.8 µm; A: water + 0.1% formic acid, pH 3; B: 30% methanol + 70% acetonitrile + 0.1% formic acid, pH 3; gradient (min/%B) 0.0/5 1.0/8 2.0/15 3.0/40 4.0/70 4.5/100 5.0/100 6.4/100 6.6/5.0 6.8/5.0 7.0/5.0. The note with it: stereoisomer not certain.
For the compound `CC(C)(O)CC(=O)O` [3-hydroxy-3-methyl butanoic acid], the LC retention time stood at 1.63 min.
Still for that read-out and setting: to `Cn1c(=N)ccn(C2OC(CO)C(O)C2O)c1=O` (configuration not stated) [3-methylcytidine methosulfate] belongs 0.619 min; to `Cn1c(=O)[nH]c(=O)c2[nH]cnc21` [3-methylxanthine], 1.45 min; to `CC(=O)Nc1ccc(C(=O)O)cc1` [4-acetamidobenzoic acid], 3.23 min.
Same read-out and setting: to `O=Cc1ccc(O)cc1` [4-hydroxybenzaldehyde] belongs 3.3 min; to `Cc1cn(C2OC(CO)C(O)C2O)c(=O)nc1N` (configuration not stated) [5-methylcytidine], 1.18 min; to `COc1cc2c(CCNC(C)=O)c[nH]c2cc1O` [6-hydroxymelatonin], 3.4 min.
For `Cn1c[n+](C2OC(CO)C(O)C2O)c2nc(N)[nH]c(=O)c21` (configuration not stated) [7-methylguanosine], the LC retention time was determined as 0.688 min.
Same read-out and setting: to `O=C(O)C(O)Cc1ccc(O)cc1` (stereo not drawn) [(DL)-p-hydroxyphenyllactic acid] belongs 2.66 min; to `Nc1ncnc2nc[nH]c12` [Adenine], 0.538 min.
Still for that read-out and setting: to `Nc1ncnc2c1ncn2C1OC(CO)C(O)C1O` (configuration not stated) [Adenosine] belongs 0.857 min; to `O=C(O)CCCCC(=O)O` [Adipic acid], 2.33 min.
With `O=C(O)CCCCCCCC(=O)O` [Azelaic acid], the LC retention time stood at 3.63 min.
Same read-out and setting: to `CC(NCCCCC(N)C(=O)O)C(=O)O` (configuration not stated) [CEL] belongs 0.459 min.
Take `Cn1c(=O)c2c(ncn2C)n(C)c1=O` [Caffeine]: the LC retention time came to 3.13 min.
Still for that read-out and setting: the value for `CC(CCC(=O)O)C1CCC2C3C(O)CC4CC(O)CCC4(C)C3CC(O)C12C` (configuration not stated) [Cholic acid] was 4.46 min.
Still for that read-out and setting: to `O=C(O)CC(O)(CC(=O)O)C(=O)O` [Citric acid] belongs 0.659 min.
Same read-out and setting: to `NC(=O)NCCCC(N)C(=O)O` (configuration not stated) [Citrulline] belongs 0.47 min; to `CC12CCC(=O)C=C1CCC1C2C(=O)CC2(C)C1CCC2(O)C(=O)CO` (configuration not stated) [Cortisone], 3.84 min.
For the compound `CN1CC(=O)NC1=N` [Creatinine], the LC retention time is 0.467 min.
On to `CC(O)C1NC(=O)C2CCCN2C1=O` (configuration not stated) [Cyclic(pro-thr)], for which the LC retention time turned out to be 1.54 min.
Same read-out and setting: to `CC(CCC(=O)O)C1CCC2C3CCC4CC(O)CCC4(C)C3CC(O)C12C` (configuration not stated) [Deoxycholic acid] belongs 4.62 min; to `NC(CCCCNC(=O)CO)C(=O)O` (configuration not stated) [GALA ((2s)-2-amino-6-(2-hydroxy-acetylamino)-hexanoic acid)], 0.527 min; to `O=C(O)CCCC(=O)O` [Glutaric acid], 1.32 min.
For the compound `O=C(O)CNC(=O)c1ccccc1` [Hippuric acid], the LC retention time amounted to 3.1 min.
On the same count and under the same terms, the value for `CC(C(=O)O)C(=O)O` [Methylmalonic acid] was 0.539 min.
